Test results from patent publication US6069176A, “Phenylethanolamine compounds useful as β 3 agonists, process for producing the same, and intermediates in the production of the same” (Mitsubishi-Tokyo Pharmaceuticals, Inc., priority 1995, dated 2000).
pEC50: −log10 of the molar value. Structures can show the parent of a compound that is named as a salt. Where two headings read alike, the source gives them in different places.

What was measured:
[1] = molecular target: β2 adrenergic receptor (Cavia porcellus, UniProt Q8K4Z4); experiment: [Test 3] relaxing effect on isolated guinea pig tracheal muscle (β2 adrenergic receptor stimulating effect); assay type: cell-based
Sequence of β2 adrenergic receptor (Q8K4Z4 whole entry): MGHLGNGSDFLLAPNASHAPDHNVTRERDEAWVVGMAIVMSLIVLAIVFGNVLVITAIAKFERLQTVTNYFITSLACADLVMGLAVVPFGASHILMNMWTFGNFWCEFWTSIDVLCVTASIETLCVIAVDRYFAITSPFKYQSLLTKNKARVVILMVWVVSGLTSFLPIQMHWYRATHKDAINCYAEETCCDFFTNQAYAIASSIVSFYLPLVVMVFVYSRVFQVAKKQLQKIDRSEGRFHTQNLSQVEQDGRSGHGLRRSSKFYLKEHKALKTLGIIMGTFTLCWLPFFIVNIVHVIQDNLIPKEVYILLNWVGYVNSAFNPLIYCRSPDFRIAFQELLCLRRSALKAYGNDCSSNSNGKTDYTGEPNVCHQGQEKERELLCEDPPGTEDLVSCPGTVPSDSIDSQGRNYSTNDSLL

[2] = system: isolated rat bladder detrusor muscle; experiment: [Test 5] relaxing effect on isolated rat bladder detrusor muscle (smooth muscle); assay type: cell-based; details: read-out: EC50 (relaxing effect on isolated rat bladder detrusor muscle)
Method: [Test 5] Examination of relaxing effect on isolated rat bladder detrusor muscle (smooth muscle)
Rat bladders were isolated by a common method for preparation of strips. The isolated bladder strips were mounted in an organ bath filled with Krebs' solution kept at 37° C., under mixed gas aeration (95% O2 +5% CO2) and subjected to an initial tension of 1.0 g. Each test compound was cumulatively added to the organ bath at intervals of 10 minutes.

[3] = molecular target: T1, β3 adrenergic receptor (Rattus norvegicus, UniProt P26255); experiment: [Test 1] spontaneous locomotion-suppressing effect on isolated rat colon (β3 adrenergic receptor stimulating effect); assay type: cell-based
T1 sequence (P26255 whole entry): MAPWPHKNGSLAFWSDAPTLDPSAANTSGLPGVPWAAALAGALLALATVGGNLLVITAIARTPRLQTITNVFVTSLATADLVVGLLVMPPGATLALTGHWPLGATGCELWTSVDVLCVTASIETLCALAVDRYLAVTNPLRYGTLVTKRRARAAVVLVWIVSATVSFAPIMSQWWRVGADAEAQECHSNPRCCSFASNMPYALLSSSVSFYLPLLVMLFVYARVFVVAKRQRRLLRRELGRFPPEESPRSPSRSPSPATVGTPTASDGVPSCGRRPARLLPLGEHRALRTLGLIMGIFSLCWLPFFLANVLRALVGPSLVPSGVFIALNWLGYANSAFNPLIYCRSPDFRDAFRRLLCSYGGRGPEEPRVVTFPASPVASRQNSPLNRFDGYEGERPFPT

[4] = system: rat bladder; experiment: [Test 9] bladder contraction induced by electrical stimulation of peripheral end of pelvic nerve in anesthetized rat; assay type: in vivo; details: through femoral vein; 20 Hz, 0.3 msec, 5V; urethane and α-chloralose anesthesia
Description: [Test 9] Effect on bladder contraction induced by electrical stimulation of peripheral end of pelvic nerve in anesthetized rat
After median incision in the abdomen of rats anesthetized with urethane and α-chloralose, the ureters on both sides were ligated and cut on the kidney side, and pledgets were placed on the cut sections to absorb the urine. Next, the hypogastric nerves on both sides were transected and the base of the penis were ligated at close the urethra. A small hole was opened in the top of bladder and, after inserting one end of a polyethylene tube, ligated. The other end of the polyethylene tube was connected to a pressure transducer (TP 400, Nihon Koden) to measure the intravesical pressure.
Physiological saline was injected into the bladder to obtain intravesical pressure at a 100 mm H2 O. The change of the intervesical pressure was recorded with a heat recorder (WT 685G, Nihon Koden). After ablating the left pelvic nerves from the fatty tissue around the bladder and cutting the central section, a platinum electrode was implanted at the peripheral end of the pelvic nerves. An electrical stimulation apparatus (SEN-3301, Nihon Koden) was used for generating a rectangular wave electrical stimulation (20 Hz, 0.3 msec, 5V) for 5 seconds every 5 minutes. […]

[5] = system: rat colon; experiment: [Test 6] suppressing effect on spontaneous locomotion of anesthetized rat colon (in vivo test); design: species or system rat (male Wistar rats); details: iv, 10 min, read-out: ED50 (suppressing effect on spontaneous locomotion of anesthetized rat colon)
Method: [Test 6] […] The lead wire of the force transducer was connected to a multipurpose preamp through a bridge box (FB-01, Star Medical), and the spontaneous locomotion of the colon was recorded with a Thermal Array Recorder (Nihon Koden), upon which the total degrees of contraction over 10 minutes were compared before and after bolus administration.

[6] = molecular target: T2, β1 adrenergic receptor (Cavia porcellus, UniProt H0W3H1); experiment: [Test 4] heart beat increasing effect on isolated guinea pig right atrium (β1 adrenergic receptor stimulating effect); assay type: cell-based; details: read-out: EC10 (heart beat increasing effect on isolated guinea pig right atrium)
T2 construct: functional heart beat increase (chronotropy)
T2 sequence (H0W3H1 1-470): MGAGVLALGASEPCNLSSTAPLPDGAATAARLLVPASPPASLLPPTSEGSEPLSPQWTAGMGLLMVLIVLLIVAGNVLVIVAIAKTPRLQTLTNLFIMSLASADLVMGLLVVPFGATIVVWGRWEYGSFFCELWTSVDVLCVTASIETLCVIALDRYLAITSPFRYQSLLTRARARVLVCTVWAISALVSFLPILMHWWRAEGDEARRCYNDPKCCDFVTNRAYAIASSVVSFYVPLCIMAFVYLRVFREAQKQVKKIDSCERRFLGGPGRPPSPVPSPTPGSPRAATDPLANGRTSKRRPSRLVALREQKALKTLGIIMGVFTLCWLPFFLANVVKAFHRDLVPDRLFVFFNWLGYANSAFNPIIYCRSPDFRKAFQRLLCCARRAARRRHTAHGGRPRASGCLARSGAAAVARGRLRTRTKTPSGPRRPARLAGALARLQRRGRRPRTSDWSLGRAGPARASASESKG

[7] = molecular target: T1, β3 adrenergic receptor; experiment: cell-based; design: Isolated rat fat was used to examine the effect on fat decomposition; from tissue; host or cells: adipocytes from fat around the testicles of male SD rats; species or system rat (male SD rats); details: rat adipocyte suspension, 30 minutes at 30° C., glycerol content; read-out: lypolytic activity (EC50 value)
[8] = system: rat confinement stress-induced diarrhea models; experiment: [Test 7] suppression of diarrhea in rat confinement stress-induced diarrhea models; assay type: in vivo, rat (male Wistar rats); details: po, 1.0 mg/kg; feces observed over 3 hours
Method: Examination of suppressing effect on diarrhea using rat confinement stress-induced diarrhea models
The nature of the feces excreted over a total of 3 hours was observed every 30 minutes, and the results were recorded as the diarrhea coefficient (0: no fecal excretion, 1: solid feces, 2: soft feces, 3: mild diarrhea, 4: muddy feces). Here, cases with a diarrhea coefficient score of 3 or higher, i.e. from feces which left a stain on filter paper to muddy feces, were judged as diarrhea, and the rate of diarrhea suppression was calculated (Table 6).

[9] = system: rat colon; details: Drugs of the Future, 18, 529-549 (1993); cited from earlier work
[10] = system: β3 adrenergic receptors; details: prior art; cited from earlier work
[11] = Drugs of the Future, 18, 529-549 (1993); cited from earlier work
[12] = system: bladder detrusor muscle; details: The autonomic nervous system, 26, 380-387 (1989); cited from earlier work
[13] = treatment for urinary incontinence; cited from earlier work
[14] = 10% augmentation of heart beats, 37° C.

Row | SMILES | pEC50 [1] | pEC50 [3] | EC10 [6, 14] [nM] | diarrhea suppression rate [8] [%] | further results
1 | O=C([O-])COc1cccc(C2CCCC(NC[C@H](O)c3cccc(Cl)c3)C2)c1.[Na+] (stereo partly shown) | 5.38 | 8.85 | – | 60 | pEC50 [2]: 7.80; suppression of bladder contraction (FIG. 2) [4]: suppressed bladder contraction at a lower dose than Clenbuterol hydrochloride; ED50 [5]: 0.27 µg/kg; EC10 [6]: > 30000 nM; pEC50 [7]: 7.68
2 | O=C([O-])COc1ccccc1C1CCCC(NC[C@H](O)c2cccc(Cl)c2)C1.[Na+] (stereo partly shown) | 6.05 | 8.48 | – | 30 | EC10 [6]: > 30000 nM
3 | CCOC(=O)COc1ccc2c(c1)CC(NCC(O)c1cccc(Cl)c1)CC2.Cl (racemic) [SR 58611A, (RS)-N-(7-ethoxycarbonylmethoxy-1,2,3,4-tetrahydronaphth-2-yl)-2-(3-chlorophenyl)-2-hydroxyethanamine hydrochloride, reference compound] | 4.85 | 8.11 | > 30000 | 20 | suppressing effect on spontaneous locomotion of rat colon [9]: potent suppressing effect on spontaneous locomotion of rat colon; selective action on β3 adrenergic receptors [10]: act selectively on β3 adrenergic receptors; ED50 [5]: 12 µg/kg
4 | COC(=O)COc1ccc(C[C@@H](C)NC[C@H](O)c2cccc(Cl)c2)cc1 (relative stereo) [BRL35135, (R*R*)-(±)-[4-[2-[2-(3-chlorophenyl)-2-hydroxyethylamino]propyl]phenoxy]acetic acid methyl ester hydrobromide salt] | – | – | – | – | lypolytic and hypoglycemic effect [11]: lypolytic and hypoglycemic effect; selective action on β3 adrenergic receptors [10]: act selectively on β3 adrenergic receptors
5 | CC(C)(C)NCC(O)c1cc(Cl)c(N)c(Cl)c1 (stereo not shown) [Clenbuterol] | – | – | – | – | pEC50 [2]: 7.51; relaxing effect on the bladder detrusor muscle [12]: relaxing effect on the bladder detrusor muscle; side-effects [13]: side-effects including finger tremor and palpitation
6 | CCOC(=O)COc1cccc(C2CCCC(NC[C@H](O)c3cccc(Cl)c3)C2)c1 (stereo partly drawn) [Example 14, (1R)-1-(3-Chlorophenyl)-2-[3-(3-ethoxycarbonylmethoxyphenyl)cyclohexylamino]ethanol] | – | – | – | 50 | –
7 | CC(C)NCC(O)c1ccc(O)c(O)c1 (stereo not shown) [Isoproterenol] | – | – | – | – | pEC50 [2]: 8.00

Second part, led by results:

Row | pEC50 [1] | pEC50 [3] | EC10 [6, 14] [nM] | SMILES | diarrhea suppression rate [8] [%] | further results
8 | 4.82 | 7.92 | > 30000 | O=C(O)COc1ccc(C2CCCC(NC[C@H](O)c3cccc(Cl)c3)C2)cc1 (single isomer, unassigned) [Example 32, acetate] | – | –
9 | 6.10 | 8.43 | > 30000 | CCOC(=O)COc1cccc(C2CCCC(NC[C@H](O)c3cccc(Cl)c3)C2)c1 (stereo partly drawn) [Example 11, (1R)-1-(3-Chlorophenyl)-2-[3-(3-ethoxycarbonylmethoxyphenyl)cyclohexylamino]ethanol hydrochloride] | – | ED50 [5]: 0.23 µg/kg
10 | 5.96 | 7.82 | – | CCOC(=O)COc1ccc(C2CCCC(NC[C@H](O)c3cccc(Cl)c3)C2)cc1 (stereo partly drawn) [Example 28, (1R)-1-(3-Chlorophenyl)-2-[3-(4-ethoxycarbonylmethoxyphenyl)cyclohexylamino]ethanol hydrochloride] | – | –
11 | 6.09 | 8.42 | > 30000 | CCOC(=O)COc1ccccc1C1CCCC(NC[C@H](O)c2cccc(Cl)c2)C1 (stereo partly drawn) [Example 43, (1R)-(3-Chlorophenyl)-2-[3-(2-ethoxycarbonylmethoxyphenyl)cyclohexylamino]ethanol hydrochloride] | 50 | –
12 | – | 7.38 | – | CCOC(=O)C1(C(=O)OCC)Oc2ccc(C3CCCC(NC[C@H](O)c4cccc(Cl)c4)C3)cc2O1 (stereo partly drawn) [Example 60, (2R)-Diethyl 5-[3-[2-(3-chlorophenyl)-2-hydroxyethylamino]cyclohexyl]benzo-1,3-dioxol-2,2-dicarboxylate] | – | –
13 | 6.09 | 7.05 | > 30000 | CCOC(=O)COc1ccc(C2CCC(NC[C@H](O)c3cccc(Cl)c3)C2)cc1 (stereo partly drawn) [Example 69, (2R)-Ethyl (4-[3-[2-(3-chlorophenyl)-2-hydroxyethylamino]cyclopentyl]phenoxy)acetate] | – | –
